Test: xn = mol fraction of the nth substance listed
Conditions: 293.15 K, 101.3 kPa

CC(=O)[O-].Cn1cc[nH+]c1 + CCO
Conditions | electrical conductivity [S/m]
x2 = 0.0616 | 0.449
x2 = 0.0975 | 0.527
x2 = 0.2701 | 0.821
x2 = 0.3985 | 1.33
x2 = 0.4978 | 1.7
x2 = 0.6604 | 2.27
x2 = 0.7397 | 2.34
x2 = 0.7865 | 1.92
x2 = 0.8291 | 1.52
x2 = 0.8486 | 1.31
x2 = 0.9522 | 0.312
x2 = 0.9648 | 0.199
x2 = 0.9725 | 0.139

CC(=O)[O-].Cn1cc[nH+]c1 + O
Conditions | electrical conductivity [S/m]
x2 = 0 | 0.326
x2 = 0.2845 | 2.06
x2 = 0.4277 | 3.44
x2 = 0.5098 | 4.31
x2 = 0.6959 | 6.95
x2 = 0.8691 | 9.7
x2 = 0.8823 | 8.7
x2 = 0.9207 | 5.18
x2 = 0.9425 | 2.9
x2 = 0.9559 | 1.7
x2 = 0.9677 | 0.849
